Read-outs that look alike come from different tables or passages of the source.
How the values were obtained:
Caco-2/PD7 cells [1] = assay: Annexin V/propidium iodide apoptosis assay, Caco-2/PD7; assay type: cell-based, human; conditions: Caco-2/PD7, annexin V/PI
Procedure: Study of cell death. After the appropriate incubation, cells were collected and stained with annexin V-FTIC, according to the manufacturer’s instructions. A negative control was prepared, containing unreacted cells to define the basal level of apoptotic and necrotic or dead cells. After incubation, the cells were transferred to flow-cytometry tubes and washed twice with temperate phosphate-buffered saline (PBS), suspended in 100 μL annexin V binding buffer (10 mM Hepes/NaOH, pH 7.4, 140 mM NaCl, 2.5 mM CaCl2), then 5 μL of annexin V-FITC, and 5 μL of PI was added to each 100 μL of cell suspension. After incubation for 15 min at room temperature in the dark, 400 μL of 1× annexin binding buffer was added and analysed by flow cytometry within one hour. The signal intensity was measured using a FACSARIA BD and analysed using FASCDIVA BD.
This inhibition of apoptosis produces a fast growth and proliferation of cancerous cells. The population of early and late apoptotic cells increased to 35% after treatment with complex 1 in comparison with the vehicle-treated cells (12%). […] Additionally, the effect observed after treating the cells with a dosage equal to the IC50 concentration is time-dependent. […]

[2] = Distribution coefficient (logP7.4), n-octanol-water shake-flask; assay type: physicochemical; conditions: n-octanol / buffered saline pH 7.4, shake-flask
Procedure: Distribution coefficient (logP7.4). The n-octanol-water coefficients of the complexes were determined using a shake-flask method, as previously reported. Briefly, buffered-saline distilled water (100 mL, phosphate buffer [PO4^3−] = 10 mM, [NaCl] = 0.15 M, pH 7.4) and n-octanol (100 mL) were shaken together for 72 h to allow for saturation of both phases. Approximately 1 mg of the complexes was dissolved in 5 mL of the aqueous phase and 5 mL of the organic phase was added, mixing them for 10 min. The resulting emulsion was centrifuged to separate the phases. The concentration of the compounds in each phase was determined using UV-vis absorbance spectroscopy. The logP7.4 was defined as log{[compound(organic)]/[compound(aqueous)]}.

Caco-2/PD7 cells [3] = assay: MTT cell proliferation assay, Caco-2/PD7; assay type: cell-based, human; conditions: MTT, 72 h; mean ± SE of at least three determinations
Procedure: (§1) Cell culture. Human colon cancer Caco-2 cells (PD7 and TC7 clones) were kindly provided by Dr. Edith Brot-Laroche (Université Pierre et Marie Curie-Paris 6, UMR S 872, Les Cordeliers, Lyon, France) and grown in Dulbecco’s Modified Eagles medium (DMEM) (Gibco Invitrogen, Paisley, UK) supplemented with 20% foetal bovine serum (FBS), 1% non-essential amino acids, 1% streptomycin (1000 μg/mL), 1% penicillin (1000 μg/mL), and 1% amphotericin (250 U/mL). Caco-2 cells were maintained at 37 °C in a humidified atmosphere at 5% CO2.
(§2) Cell proliferation assay. Cell proliferation was measured using the 3-(4,5-dimethyl-2-thiazoyl)-2,5-diphenyltetrazolium bromide (MTT) assay, as previously described. Caco-2/TC7 cells were seeded in a 96-well plate at a density of 4000 cells/well and grown for 24 h before being treated with each complex or DMSO (used as control). After 72 h of incubation with the complexes, 10 μL of MTT (5 mg/mL) were added and incubation was continued at 37 °C for 3 h. Inversion removed the medium and 100 μL of DMSO were added to each well. Absorbance at 560 nm, proportional to many living cells, was measured by spectrophotometry (SPECTROstar Nano, BMG LABTECH, Ortenberg, Germany) and converted into a percentage (%) of growth inhibition.
(§3) The antiproliferative effects of the mononuclear and heteropolinuclear complexes were tested on two different Caco-2 cancer cell lines (PD7 and […]). […] Caco-2 cells of both PD7 and TC7 clones were exposed to increasing concentrations of the assayed compounds through dose–response/cell viability analysis. The results in terms of the IC50 parameter (Table 4) were obtained by using the MTT protocol.

Caco-2/TC7 cells = assay: MTT cell proliferation assay, Caco-2/TC7; assay type: cell-based, human; conditions: 72 h, mean ± SE of at least three determinations
Procedure: as §1, §2, §3

[4] = test system: pIRES2-EGFP (5308 pb) plasmid DNA; parameters: method as in PMID 24732792, PMID 3707609; conditions: cited from earlier work
[5] = test system: differentiated Caco-2/PD7 cells; assay: Cell viability of differentiated (enterocyte-like) Caco-2/PD7 cells; assay type: cell-based, human
Procedure: For cell viability studies of differentiated (enterocyte-like) cells, Caco-2/PD7 cells were seeded on 96-well plates at a density of 4 × 10^3 cells/well and incubated for approximately 10–15 days, changing the culture medium every 3 days, up to reaching confluence—the moment in which the cells were treated with the complexes at concentrations equal to their mean IC50 and 2 × IC50 values.
It is well known that the Caco-2 cell line undergoes spontaneous differentiation into enterocytic-like cells when it reaches confluency. As a result, these cells become polarised, expressing apical and basolateral surfaces with established tight junctions. This allowed for the evaluation of the cytotoxic impact of the complexes on differentiated cells (acting as noncarcinogenic) and a comparison with the viability of undifferentiated cells. Thus, the toxicity of the two heteronuclear compounds has been studied by cell viability experiments by treatment of Caco-2/PD7 cells after differentiation with complexes 1 and 2 at the corresponding concentrations equivalent to IC50 and 2 × IC50 values for 72 h. The results expressed as the % of cell viability observed after treatment with the complexes (or 100% for non-treated control cells) are summarised in Figure S16 (Supplementary Materials). […] However, the cell viability is around 90% even when the cells are treated with double the IC50 concentration.

[6] = test system: pIRES2-EGFP (5308 pb) plasmid DNA; assay: Gel electrophoretic mobility of plasmid DNA; assay type: binding; conditions: metal-to-base pair ratios 0.5, 1, 2; 0.8% agarose gel
Procedure: Adducts with pIRES2-EGFP (5308 pb) plasmid DNA (Catalog #6029-1) were prepared by adding the required volume of a freshly prepared solution of metal complexes in MilliQ water. The concentration of pIRES2-EGFP in the reaction mixture was 117 ng/µL, and the complexes’ concentration was varied to give different metal-to-base pair stoichiometries (0.5, 1 and 2). The mobility of the metal complex-treated pIRES2-EGFP samples was analysed by gel electrophoresis on a 0.8% (w/v) agarose gel (Boehringer-Mannheim, Mannheim, Germany) at […] at 25 °C in Tris-acetate/EDTA buffer. The gel was stained for 30 min in […] (w/v) ethidium bromide and the bands were visualised with a UVP gel scanner.
In addition, the interaction of both complexes with DNA was also studied by their ability to modify the electrophoretic mobility of the pIRES2-EGFP (5308 pb) plasmid DNA and compared to cisplatin (Figure 7).

ct-DNA (calf thymus DNA) [7] = test system: ct-DNA (calf thymus DNA); parameters: method as in PMID 20926136; conditions: cited from earlier work
ct-DNA (calf thymus DNA) [8] = assay: ct-DNA binding constant by UV-vis titration (Benesi-Hildebrand); conditions: complex 20 μM, ct-DNA 0-100 μM, Tris-HCl pH 7.2
Procedure: A ctDNA solution was prepared at 1 mg/mL in tris (tris(hydroxymethyl)aminomethane)/HCl (0.1 M, pH 7.2). Then, the purity of the ctDNA was checked, recording its spectra and calculating the absorption ratio between 260 and 280 nm. This experiment also provides the means to calculate the concentration of ctDNA using the Beer–Lambert formula, with the extinction coefficient of 6600 M^−1cm^−1. Every experiment was corrected with a baseline of the buffer and the corresponding concentration of dimethylsulfoxide. The addition of DNA solution was performed in both assay and reference cuvettes. Then, the binding constant was calculated using the modified Benesi–Hildebrand equation. Kb is the binding constant, εf, εa, and εb are the extinction coefficients for the free compound, the apparent coefficient (calculated as the ratio of the absorbance and the concentration of the compound in the experiment), and the compound–DNA complex, respectively. […]
The binding capabilities of [Cu{Au(Spy)(PTA)}2]PF6 (1) and [Au(Spy)(PTA)] were estimated towards […] by recording the electronic absorption spectra throughout their interaction. The absorbance measurements were performed by successive additions of a DNA stock solution (10, 20, 30, 40 up to 100 μL) which afforded the final concentration of ct-DNA (from 0 to 100 μM) while maintaining the concentration of the complexes (20 μM). […]

A2780/R = test system: A2780/R; parameters: method as in PMID 19937669; conditions: cisplatin-resistant ovarian cancer cell line; cited from earlier work
A2780/S = test system: A2780/S; parameters: method as in PMID 19937669; conditions: ovarian cancer cell line; cited from earlier work

In the case of `CC(=O)OC[C@H]1O[C@@H]([S-])[C@H](OC(C)=O)[C@@H](OC(C)=O)[C@@H]1OC(C)=O.CCP(CC)CC.[Au+]` [Auranofin, reference compound], the “Cell death stage after treatment” value (Caco-2/PD7 cells [1]) is reported as “most cells being found in late-stage apoptosis and necrosis”, the logP [2] is reported as −2.53 and the IC50 (Caco-2/PD7 cells [3]) is reported as 1800 ± 100 nM. For the same compound, the IC50 (Caco-2/TC7 cells) was 2100 ± 400 nM and the “Reactivity with DNA” value [4] was “lack of reactivity”.

For [Zn{Au(PTA)(Spy)}2]Cl2 [compound 3], the “Cell viability of differentiated Caco-2 cells at 2 × IC50” value ([5]; differentiated Caco-2/PD7, concentration = 2 × IC50, 72 h) was 93.18 ± 11.99% and the “Cell viability of differentiated Caco-2 cells at IC50” value ([5]; differentiated Caco-2/PD7, concentration = IC50, 72 h) was 98.87 ± 21.63%.

For `N.N.[Cl][Pt][Cl]` [cisplatin], the “Effect on electrophoretic mobility of plasmid DNA” value [6] was “greatly alters the electrophoretic mobility”.

For `CC[n+]1c(-c2ccccc2)c2cc(N)ccc2c2ccc(N)cc21` [EB, ethidium bromide], the “DNA binding constant Kb” value (ct-DNA (calf thymus DNA) [7]) is given as 1.23(±0.07) × 10^5 M^−1.

With `c1ccc([S][Au][P]23CN4CN(CN(C4)C2)C3)nc1` [[Au(Spy)(PTA)]] the “Effect on electrophoretic mobility of plasmid DNA” value [6] was “does not affect the mobility”, the IC50 (Caco-2/PD7 cells [3]) was 2640 ± 250 nM and the IC50 (Caco-2/TC7 cells) was 2030 ± 20 nM. The “DNA binding constant Kb” value (ct-DNA (calf thymus DNA) [8]) was 90600 M⁻¹, the IC50 (A2780/R) was 8200 nM and the IC50 (A2780/S) was 9600 nM.
